# Measurements taken from patent publication US20210009682A1, “REDUCING CUTANEOUS SCAR FORMATION AND TREATING SKIN CONDITIONS” (Northwestern University, priority 2013, published 2021).
# “Also recorded” adds a separate entry of the source. Counter-ions that a name gives are not always drawn.
# Legend:
# COX-2 [1] = assay: Expression of COX-2 in keratinocytes incubated with trypsin; assay type: cell-based, human; conditions: for up-regulation of COX-2: high concentration of sodium stimulation
# IL-1β = assay: Expression of IL-1β in keratinocytes incubated with trypsin; assay type: cell-based, human; conditions: for up-regulation of IL-1β: high concentration of sodium stimulation
# Text: (§1) FIGS. 9A-I. Prss8 is an important protein downstream of Nax. […] As a primary function, Prss8 can activate ENaC by cleaving its a subunit. The cleaved and non-cleaved bands can be visualized by an ENaC specific protein with western blotting (H). […] However, the cleavage of the ENaC a subunit was enhance by trypsin in Nax knockdown keratinocytes (H and I). FIG. 10. The keratinocytes differentiation with or without knockdown of Nax. Keratinocytes can be differentiated in differentiation medium to form a multiple cell layer structure like skin epidermis (Panel A). […] Knockdown of Nax inhibited the keratinocyte differentiation (Panel B) with the absence of K10 marker in the cell (Panel E). […] The expression of differentiation markers are similar to the differentiated wild type keratinocytes.
# (§2) To further confirm the pathway of Nax-Prss8-ENaC, a Prss8 homolog, trypsin was used to activate the ENaC with the knockdown of Nax.
# IL-8 = assay: Expression of IL-8 in keratinocytes incubated with trypsin; assay type: cell-based, human; conditions: for up-regulation of IL-8: high concentration of sodium stimulation
# Text: as §1, §2
# ENaC a subunit = assay: Cleavage of the ENaC α subunit by western blotting in keratinocytes; assay type: cell-based, human; conditions: Nax knockdown keratinocytes
# Text: as §1
# keratinocytes = assay: Keratinocyte differentiation in differentiation medium (K14/K10 markers); assay type: cell-based, human; conditions: Nax knockdown keratinocytes, daily incubation with differentiation medium containing 10 ug/ml trypsin
# Text: as §1, §2
# dermal fibroblasts = assay: Activation of dermal fibroblasts (α-SMA and pro-Col I expression) by HaCaT condition medium; assay type: cell-based, human; conditions: for activation of fibroblasts: PGE2 receptor blockade in condition medium from HaCaT with increased water loss
# Procedure: FIGS. 3A-C. ENaC senses sodium concentration changes in keratinocytes and regulates downstream genes. Stratified HaCaT and fibroblast were co-cultured in transwell plates and subjected to increased water loss and control conditions for 16 hours. Expression of α-SMA and pro-Col I was detected in dermal fibroblasts (HDF) with their specific antibodies and visualized with fluorescence labeled secondary antibodies, Nuclei were stained with DAPI. (FIG. 3A, Panels A-D) Stratified HaCaT and fibroblasts in control condition. (FIG. 3A, Panels E-H) Stratified HaCaT and fibroblasts in increased water loss condition. (FIG. 3A, Panels I-L) Stratified ENaC knockdown HaCaT and fibroblasts in control condition. (FIG. 3A, Panels M-P) Stratified ENaC knockdown HaCaT and fibroblasts in increased water loss condition. (FIGS. 3B-C) The quantification of expression levels of α-SMA and pro-Col I by ImageJ. The scale bar represents 100 μm. *p<0.05, **p<0.01.
# FIGS. 4A-C. Show results from Example 1 where it was determine that PGE2 is important for the activation of fibroblasts by keratinocytes. As described in Example 1, condition medium of stratified wild type (or ENaC knockdown) HaCaT culture under increased water loss was collected and supplemented to fibroblasts for 24 hours. Expression of α-SMA and pro-collagen I in dermal fibroblasts was tested as described in
# FIG. 3. (FIG. 4A, Panels A-D) Wild type HaCaT condition medium (CM). (FIG. 4A, Panels E-H) ENaC-knockdown HaCaT condition medium. (FIG. 4A, Panels I-L) ENaC-knockdown HaCaT condition medium plus 10 μM of PGE2. (FIGS. 4B-C) Quantification of expression levels of α-SMA (FIG. 4B) and pro-Col I (FIG. 4C) was performed by ImageJ. The scale bar represents 100 μm. **p<0.01.
# Since the PGE2 is a downstream product of COX-2 and found to be involved in regulation of fibroblast cytoskeletal dynamics during airway epithelium injury (37), it was hypothesized that PGE2 signaling is important for keratinocyte-fibroblast signaling. […]
# COX-2 [2] = assay: COX-2 mRNA expression by RT-qPCR in human foreskin keratinocytes (HK) culture; assay type: cell-based; conditions: HKs with calcium channel blocked
# Procedure: FIGS. 2A-F. Regulation of COX-2 and PGE2 by sodium flux is mediated by ENaC. FIGS. A and B show mRNA expression analysis of COX-2 as described in Example 1. (A) COX-2 mRNA expression in HESCs. HESCs were cultured with increased water loss condition for 4 or 16 hours (n=4). Total RNAs were isolated and RT-qPCR was performed. Gene expression was normalized according to the expression level of GAPDH. The level of COX-2 expression in HESCs treated with increased water loss was compared to that in control cells, which was set at 100% as expression level. (B) COX-2 mRNA expression keratinocytes culture. Stratified wild type or ENaC-knockdown HaCaT cells were cultured with increased water loss or sodium concentration condition for 16 hours (n=4). (C) PGE2 protein expression. Monolayer wild type or ENaC-knockdown HaCaT cells were cultured with increased sodium concentration condition for 16 hours (n=4). The amount of PGE2 in culture medium was measured by ELISA. (D) Western blot analysis (n=4). […] After 10, 30, 60, 240 minutes treatment, samples were harvested and western blot was performed with antibodies against phosphorylated-Akt, and Akt. β-actin was detected as a loading control. […] Cox-2 mRNA (E) and PGE2 (F) protein expression were analyzed by RT-qPCR and ELISA. *p<0.05, **p<0.01. […]
# [3] = test system: rabbit ear hypertrophic scar; assay: Hypertrophic scar model in the rabbit ear (scar elevation index); assay type: in vivo; conditions: for scar elevation index (SEI): topical, harvested POD28
# Procedure: As described in Example 1, full thickness 7 mm excision wounds were made on the ventral side of the rabbit ears at PODO. Amiloride (an ENaC inhibitor) or Celecoxib (a COX-2 inhibitor) was applied to the wounds every other day for a total of three times starting at POD14. Wounds harvested at POD28 and histological analysis was performed. (A-D) Representative pictures of wound histology at POD28. Rabbit ear wounds with Amiloride treatment (B) and control (A) and with Celecoxib treatment (D) and its control (C) are shown. (E) The scar elevation index (SEI) was calculated and used to evaluate the scar formation. (F. G) SEI. Twelve wounds for each dose of treatment and 12 controls were used for the analysis. *P<0.05. Scar bar stands for 1000 μm. **p<0.01. […] The present invention is not limited by such a mechanism and an understanding of the mechanism is not necessary to practice the present invention.
# Sustained activation of dermal fibroblasts with accumulation of collagen is the main cause of hypertrophic scars (38, 39). […] The role of the ENaC-COX-2 pathway was investigated in vivo utilizing a well validated hypertrophic scar model in the rabbit ear (31, 40-43). Amiloride, an ENaC antagonist, was topically applied to the rabbit ear wounds after re-epithelialization was complete. Control scars, located on the contralateral ear, were treated with vehicle alone. In this model, absence of scar elevation gives a scar elevation index (SEI) of 1.0, and control wounds heal with an elevated scar (SEI >1). […] This reduction in scarring exceeds other therapies in validated model of hypertrophic scarring (14, 44, 45). In an identically designed experiment, Celecoxib, a COX-2 inhibitor, was applied on rabbit ear wounds to evaluate its effect on formation of hypertrophic scars. Similarly, treatment of 2 mg/wound of Celecoxib on rabbit ear wounds reduced the hypertrophy of the scar from 1.53±0.10 to 1.23±0.07 (FIG. 5C, D, and G).
# [4] = test system: stratified keratinocytes (HaCaT); assay: Sodium flux by scanning ion-selective electrode technique (SIET) in stratified keratinocyte culture with increased water loss; assay type: cell-based, human; design: dose or concentration left out as unconfirmed; conditions: amiloride
# Procedure: As described in Example 1, HESCs or stratified keratinocytes (HaCaT) were cultured for 16 hours in the indicated conditions and ion fluxes were measured immediately after the samples were submerged in the bathing buffer. Sodium flux in HESCs culture with increased water loss (A) or increased media sodium concentration (10% more than control) (B). Sodium flux in stratified keratinocytes culture with increased water loss (C) or sodium concentration (D). Calcium (E) or chloride (F) flux in stratified keratinocytes culture with increased water loss. (G) Sodium flux in amiloride treated stratified keratinocytes culture with increased water loss. […] Background readings were obtained more than 1000 μm away from the sample. *p<0.05, **p<0.01.
# Increased trans-epidermal water loss results in higher sodium flux. To estimate the change of sodium flux of skin, the sodium flux was measured in human ex vivo skin culture (HESC), which retains important elements of in vivo skin and recapitulates the features of human wound repair (25, 26). […] To validate increased TEWL, expression levels of aquaporin 3 (AQP3) were measured, which has been reported as a molecular marker to indicate the hydration conditions of skin (27, 28). […]
# Changes in sodium flux were evaluated using a scanning ion-selective electrode technique (SIET). […]
# [5] = wild type keratinocytes, 10 μg/ml trypsin
compound,measurement,setting,value
trypsin,up-regulation of COX-2,COX-2 [1]; ENaC knockdown keratinocytes,but not in ENaC knockdown cells
same,up-regulation of COX-2,COX-2 [1]; Nax knockdown keratinocytes,recovered the up-regulation; also recorded: up-regulated
same,expression of COX-2,COX-2 [1]; [5],significantly increased
same,up-regulation of IL-1β,IL-1β; ENaC knockdown keratinocytes,recovered the up-regulation
same,up-regulation of IL-1β,IL-1β; Nax knockdown keratinocytes,recovered the up-regulation; also recorded: up-regulated
same,expression of IL-1β,IL-1β; [5],significantly increased
same,up-regulation of IL-8,IL-8; ENaC knockdown keratinocytes,recovered the up-regulation
same,up-regulation of IL-8,IL-8; Nax knockdown keratinocytes,recovered the up-regulation; also recorded: up-regulated
same,expression of IL-8,IL-8; [5],significantly increased
same,cleavage of the ENaC a subunit,ENaC a subunit,enhance
same,differentiation of keratinocytes,keratinocytes,re-established the differentiation; also recorded: successfully recovered the differentiation
"CCCCC[C@H](O)/C=C/[C@H]1[C@H](O)CC(=O)[C@@H]1C/C=C\CCCC(=O)O [PGE2, prostaglandin E2]",activation of fibroblasts (α-SMA and pro-Col I),"dermal fibroblasts; 10 μM PGE2 added to ENaC knockdown HaCaT culture conditioned medium, 24 hours",successfully rescued
CCCCCC(O)CCC1CCC(=O)N1CCCCCCC(=O)O (centres unmarked) [CAY10580],activation of fibroblasts,dermal fibroblasts,reduced activation of fibroblasts to control levels
CC(C)Oc1ccc2c(=O)c3cc(C(=O)O)ccc3oc2c1 [AH6809],activation of fibroblasts,dermal fibroblasts,reduced activation of fibroblasts to control levels
COC(=O)C1=C(C)NC(C)=C(C(=O)OC2CCCN(Cc3ccccc3)C2)C1c1cccc([N+](=O)[O-])c1 (centres unmarked) [benidipine hydrochloride],increased expression levels of COX-2 during increased water loss or sodium concentration,COX-2 [2],not abolished
Cc1ccc(-c2cc(C(F)(F)F)nn2-c2ccc(S(N)(=O)=O)cc2)cc1 [Celecoxib],scar elevation index (SEI),"[3]; rabbit ear wounds, 2 mg/wound",1.23±0.07
N=C(N)NC(=O)c1nc(Cl)c(N)nc1N [amiloride],enhanced sodium flux due to increased water loss,[4],completely abolished
same,scar formation / hypertrophy of rabbit ear scar (in words),"[3]; rabbit ear scar treatment, 28 days post wounding",clearly showed the improvement of the scar formation
same,reduction of scar formation compared to control wound healing groups,"[3]; rabbit ear wounds, lower concentrations",did not show significant reduction
same,scar elevation index (SEI),"[3]; rabbit ear wounds, 0.5 mg/wound",1.06±0.05
